This is an account of results in ChEMBL document CHEMBL2346599, “Rational design and binding mode duality of MDM2-p53 inhibitors” (J Med Chem, 2013).

Calls of active or inactive are those of the source. No cut-off for these calls is given here.

Data set [1] in a line: Drug uptake in tumor of athymic nude mouse xenografted with human SJSA1 cells at 100 mg/kg, po qd after 7 hrs. The data set is classed as ADME, organism-based, Neoplasm, SJSA-1. Further details: dose 100 mg/kg, route oral. The conditions noted are these: read-out: Drug uptake.
A short description of data set [2]: Drug uptake in tumor of athymic nude mouse xenografted with human SJSA1 cells at 300 mg/kg, po qd after 7 hrs. Further details: dose 300 mg/kg, route oral. To be noted: read-out: Drug uptake. The data set is classed as ADME, organism-based, Neoplasm, SJSA-1. A general note: In xenograft studies the graft and the host belong to different species.
Data set [3] can be described thus: Drug uptake in tumor of athymic nude mouse xenografted with human SJSA1 cells at 30 mg/kg, po qd after 7 hrs. The data set is classed as ADME, organism-based, Neoplasm, SJSA-1. Details: dose 30 mg/kg, route oral. The conditions noted are these: read-out: Drug uptake.
Data set [4] can be described thus: Plasma concentration in athymic nude mouse xenografted with human SJSA1 cells at 300 mg/kg, po qd after 7 hrs. The data set is classed as ADME, organism-based, SJSA-1. Details: dose 300 mg/kg, route oral.
The nature of data set [5]: Fraction unbound in rat plasma. The data set is classed as ADME, cell-free.
Data set [6] is described as follows: Fraction unbound in human plasma. It is filed as ADME, cell-free.
The nature of data set [7]: Oral bioavailability in athymic nude mouse at 5 mg/kg. To be noted: in vivo. The data set is classed as ADME, organism-based.
The nature of data set [8]: Fraction unbound in mouse plasma. The data set is classed as ADME, cell-free.
A short description of data set [9]: Volume of distribution at steady state in athymic nude mouse at 1 mg/kg, iv. The data set is classed as ADME, organism-based. Further details: dose 1 mg/kg, route intravenous. To be noted: in vivo, read-out: Vdss.
Data set [10] is described as follows: Half life in athymic nude mouse at 1 mg/kg, iv. The data set is classed as ADME, organism-based. Further details: dose 1 mg/kg, route intravenous. The conditions noted are these: in vivo.
A short description of data set [11]: AUC in athymic nude mouse at 5 mg/kg, po. It is filed as ADME, organism-based. Details: dose 5 mg/kg, route oral. To be noted: plasma.
Data set [12] in a line: Clearance in athymic nude mouse at 1 mg/kg, iv. Further details: dose 1 mg/kg, route intravenous. The conditions noted are these: in vivo. It is filed as ADME, organism-based.
The next data set deals with T1, Protein Mdm4 (Homo sapiens, UniProt O15151).
T1 sequence (O15151 whole entry): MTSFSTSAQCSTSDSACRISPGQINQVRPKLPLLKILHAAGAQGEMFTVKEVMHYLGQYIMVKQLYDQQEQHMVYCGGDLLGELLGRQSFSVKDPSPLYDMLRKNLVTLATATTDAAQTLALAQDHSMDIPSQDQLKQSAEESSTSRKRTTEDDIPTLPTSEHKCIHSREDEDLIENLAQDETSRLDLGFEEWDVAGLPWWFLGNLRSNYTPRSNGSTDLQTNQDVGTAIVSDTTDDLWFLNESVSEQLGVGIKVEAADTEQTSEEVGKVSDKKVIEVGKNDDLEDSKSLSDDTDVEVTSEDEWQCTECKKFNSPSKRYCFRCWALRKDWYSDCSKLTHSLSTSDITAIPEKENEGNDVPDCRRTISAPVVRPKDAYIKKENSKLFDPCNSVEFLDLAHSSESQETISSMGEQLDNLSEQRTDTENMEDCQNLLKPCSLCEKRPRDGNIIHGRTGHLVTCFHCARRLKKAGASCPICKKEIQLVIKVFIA
The data set is described as follows: Binding affinity to MDMX (unknown origin) after 20 mins by HTRF assay. In general terms: Time-resolved FRET reads energy transfer from a long-lived donor to a nearby acceptor.

A further data set is filed under the species Mus musculus. The conditions noted are these: SJSA-1, 30 to 100 mg/kg.
In data set [13] the target is T2, E3 ubiquitin-protein ligase Mdm2 (Homo sapiens, UniProt Q00987). Briefly: Inhibition of human recombinant GST-thrombin-MDM2 (1 to 188) expressed in Escherichia coli assessed as reduction of MDM2-p53 interaction incubated for 20 mins followed by p53 addition measured after 60 mins by HTRF assay.
For data set [14], the target named is T2, E3 ubiquitin-protein ligase Mdm2. The data set is described as follows: Inhibition of human recombinant GST-thrombin-MDM2 (1 to 188) expressed in Escherichia coli assessed as reduction of MDM2-p53 interaction incubated for 20 mins followed by p53 addition measured after 60 mins by HTRF assay in presence of 15% serum.

T2 sequence (Q00987 whole entry): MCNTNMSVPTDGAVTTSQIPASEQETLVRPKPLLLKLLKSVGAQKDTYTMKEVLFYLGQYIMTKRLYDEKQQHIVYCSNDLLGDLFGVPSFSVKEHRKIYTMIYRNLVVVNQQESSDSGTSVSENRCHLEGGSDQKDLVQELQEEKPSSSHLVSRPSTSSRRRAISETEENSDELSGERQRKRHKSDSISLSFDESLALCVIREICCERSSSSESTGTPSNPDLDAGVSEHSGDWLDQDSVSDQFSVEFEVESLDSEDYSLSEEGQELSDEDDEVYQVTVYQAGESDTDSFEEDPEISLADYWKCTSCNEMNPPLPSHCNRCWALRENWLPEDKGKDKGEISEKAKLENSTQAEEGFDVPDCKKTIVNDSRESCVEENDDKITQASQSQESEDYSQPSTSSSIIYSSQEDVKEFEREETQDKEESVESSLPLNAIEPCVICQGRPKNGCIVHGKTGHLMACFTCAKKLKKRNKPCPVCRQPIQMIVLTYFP
Description for Mus musculus: In vivo inhibition of MDM2 in human SJSA1 cells xenografted in athymic nude mouse assessed as upregulation of p21 mRNA level at 30 to 100 mg/kg, po qd after 7 hrs by qRT-PCR analysis

Turning to `O=C(O)C[C@@H]1O[C@@H](c2cccc(Cl)c2)[C@@H](c2ccc(Cl)cc2)N(CC2CC2)C1=O`, the concentration at 7 h in [1] worked out at 2.1 µM; in data set [2], 22.9 µM; in data set [3], 0.3 µM; in [4] it was 102 µM. The unbound share (fraction unbound) in data set [5] came to 0.06; in data set [6], 0.042; in data set [8], 0.059. In [7], this compound came in with a bioavailability of 59%. Also, in [9], the Vd was 3.9 L/kg. The half-life in data set [10] is 4.1 h. The area under the curve (AUC) in [11] was found to be 4.1 µM·h. The compound further showed a clearance in data set [12] of 28.3 mL/min/kg. The half-maximal inhibitory concentration (IC50) at Protein Mdm4 was more than 30 µM. For the same compound, the inhibition entry in the data set filed under Mus musculus is “inactive”.
On Protein Mdm4, `O=C(O)C[C@H]1C[C@H](c2cccc(Cl)c2)[C@@H](c2ccc(Cl)cc2)N(CC2CC2)C1=O` displayed a half-maximal inhibitory concentration (IC50) of more than 30 µM.
For `COc1ccc([C@H]2CC(=O)C=C(c3ccc(Cl)cc3)[C@@H]2c2ccc(Cl)cc2)cc1OC` (racemic), the IC50 in [13] is more than 30 µM.
Same read-out and setting: under `CC(C)(C)OC(=O)N1CC(=O)N[C@H](c2ccc(Br)cc2)[C@@H]1c1ccc(Br)cc1` (racemic) stands more than 30 µM.
Still for that read-out and setting: in the case of `CN1C[C@H](Cc2ccccc2)O[C@@H](c2ccc(Br)cc2)[C@H]1c1ccc(Br)cc1` (racemic) it was more than 30 µM.
On Protein Mdm4, `CN1C(=O)[C@H](Cc2ccccc2)O[C@@H](c2ccc(Br)cc2)[C@H]1c1ccc(Br)cc1` showed an IC50 of more than 30 µM.
For the compound `CCC[C@H](C(=O)O)N1C(=O)[C@H](Cc2ccc(F)cc2)O[C@@H](c2ccc(Cl)cc2)[C@H]1c1ccc(Cl)cc1`, the IC50 at Protein Mdm4 was more than 30 µM.
For `CN1C(=O)CO[C@@H](c2ccc(Cl)cc2)[C@H]1c1cccc(Cl)c1` (racemic), the 50% inhibitory concentration (IC50) in data set [14] and in data set [13] was more than 30 µM throughout.

A word on the fraction unbound: it is the share of the substance not bound to proteins or other matrix. The low end stands for little free substance, the high end for much free substance. As a reminder, the bioavailability is the share of a dose that reaches the circulation, judged against a reference dose that is usually intravenous. As a reminder, the half-life is the time in which the quantity being followed falls by half. Read a low half-life as fast loss. The AUC is the area under the concentration-time curve, a measure of exposure. Read a high AUC as high exposure. As usually defined, the clearance is the volume of plasma or blood freed of the substance per unit of time. Lower therefore signals inefficient removal. What is called IC50 is the concentration that gives 50% inhibition.
